Consider ten molecules from patent US20140341983A1, “SMART™ SOLID ORAL DOSAGE FORMS” (priority 2011, published 2014).

For data set [1] the following is noted: @ 25° C., experimental; cited from earlier work.
For data set [2] the following is noted: cited from earlier work.
The nature of data set [3]: D-limonene recovery from placebo SL powder by LCMS (stability). Type of data set: physicochemical.
Method: Three replicate 30 mg portions of this powder were removed immediately after preparation and extracted with acetonitrile to recover the D-limonene. The extracts were analyzed by liquid chromatography-mass spectrometry (LCMS). This was repeated with three more portions after four hours and again after eight hours (FIG. 26).
A short description of data set [4]: Aim 1: breath kinetics and dose-response after sublingual solutions (SAW). Type of data set: in vivo, human. The protocol:
Dose-response relationships were determined in four study participants following sublingual administration of solutions containing D-limonene and methyl salicylate. […] Five seconds after administration of the solution, the participant would blow a single five second breath into the SAW sensor. […] The participant kept his or her mouth closed when not providing a sample and refrained from breathing through the mouth or talking during the collection period. In addition, the more promising solutions (7, 12 and 16) were tested in triplicate to estimate reproducibility within individuals.

For data set [5] the following is noted: cited from earlier work. The source holds these as a separate data set.
A short description of data set [6]: Breath 2-butanone after ingestion of food or 2-butanol taggant. To be noted: foods: two servings; 2-butanol taggant: 40 mg ingested, n=7.
Method: To assess the interference produced by food, 6 subjects rapidly consumed (<5 min) two servings (≈16 fl. Oz) of yogurt or 2 servings (≈60 g) of cheddar cheese and breath samples were collected for 60 min after ingestion.
The conditions of data set [7]: octanol-water coefficient; cited from earlier work.
Data set [8] can be described thus: Oral vanillin detection by direct breath LCMS (OrbiTrap). The data set is classed as in vivo, human. The settings on record: 30 μg vanillin in 10 μL neat ethanol on tongue. An excerpt:
In the lower panel of FIG. 14, note how an internal standard (semi-volatile organic acid) stays constant for each of the six breaths.

Where [9] appears, read: dose that can be taken for remainder of life without regulatory concern.

SMILES strings stand for the structures. Like-named read-outs stand apart in the source and are kept apart here.

On to `CC(C)[C@@H]1CC[C@@H](C)C[C@H]1O` (racemic) [DL-menthol], for which the “VP (vapor pressure)” value in data set [1] was 0.0637 @ 25 °C mmHg. In data set [2] (@ 25° C.), the “Water Sol” value was 456 @ 25 °C mg/L.

For the molecule `C=C(C)[C@H]1CC=C(C)CC1` [D-limonene, 4-isopropenyl-1-methylcyclohexene], the “D-limonene dose recovered from SL powder” value in data set [3] (at eight hours) is 11%; in data set [3] (at four hours) it was 22%; in data set [3] (just after preparation), “Approximately 65%”. In data set [4] (human, in vivo), the “breath concentration measured at 5 seconds lost by 50 seconds” value is recorded as 78%. Moreover, the “time course of flavorant concentration in exhaled breath” value in data set [4] (in vivo) is reported as “decayed exponentially over time”.

As to `CCC(C)O` (stereo not drawn) [Formulation 2-butanol, 2-butanol], the “permissible daily exposure (PDE)” value in data set [5] (setting [9]) is recorded as 300 mg/day; in data set [5] (orally) it was 300 mg orally per day. Besides, the “Maximum 2-butanone (Cmax) in breath” value in data set [6] is “≈ 549 ppb”. Further, in data set [6], the “Tmax of 2-butanone in breath” value came out at 6.7 ± 0.6 min.

As for `CCCC(C)=O` [Formulation 2-pentanone, 2-pentanone], the “permissible daily exposure (PDE)” value in data set [5] (setting [9]) is 250 mg/day; in data set [5] (orally), 250 mg orally per day.

A word on the log P: it is the decadic logarithm of the partition coefficient of the neutral form, usually between octanol and water. Turning to `C=C(C)[C@@H]1CC=C(C)C(=O)C1` [L-carvone], the “VP (vapor pressure)” value in data set [1] was 0.103 @ 25 °C mmHg. Moreover, in data set [7], the “log P” value is 2.71. Moreover, the “Water Sol” value in data set [2] (@ 25° C.) was 1,310 @ 25 °C mg/L.

Consider `CCO` [ethanol, reference compound], for which the “permissible daily exposure (PDE)” value in data set [5] (orally) is given as 166.7 mg orally per day.

With `COC(=O)c1ccccc1N` [methyl anthranilate], the “log P” value in data set [7] is 1.88. The “Water Sol” value in data set [2] (@ 25° C.) was 2,850 @ 25 °C mg/L.

As for `COC(=O)c1ccccc1O` [methyl salicylate, methyl-2-hydroxybenzoate], the “VP (vapor pressure)” value in data set [1] was 0.0343 @ 25 °C mmHg. The “time course of flavorant concentration in exhaled breath” value in data set [4] (after a single SL administration) was “decayed exponentially over time”. The “breath concentration measured at 5 seconds lost by 50 seconds” value in data set [4] (single SL administration, average) amounted to 50%. For the same molecule, in data set [7], the “log P” value is 2.55. Besides, the “Water Sol” value in data set [2] (@ 30° C.) is 700 @ 30 °C mg/L.

For `CC(C)c1cccc(C(C)C)c1O` [propofol, reference compound], the “VP (vapor pressure)” value in data set [1] was 0.00305 @ 25 °C mmHg. Besides, the “Water Sol” value in data set [2] (@ 25° C.) was 124 @ 25 °C mg/L.

As for `COc1cc(C=O)ccc1O` [vanillin, 4-hydroxy-3-methoxybenzaldehyde], the “VP (vapor pressure)” value in data set [1] was 1.18E-04 @ 25 °C mmHg. Besides, the “persistence in human breath” value is given as 2 min in data set [8] and “≈ 2 min” in data set [8] (listed as Vanillin). Moreover, the “Water Sol” value in data set [2] (@ 25° C.) was 11,000 @ 25 °C mg/L.
